These results are taken from PMC9137479, “The Class A β-Lactamase Produced by Burkholderia Species Compromises the Potency of Tebipenem against a Panel of Isolates from the United States” (Antibiotics, 2022).

The structures appear in SMILES notation.

One assay has as its target T1, PenA1 (Burkholderia multivorans, UniProt A0A0H3KN52).
T1 construct: gene ampC; purified class A beta-lactamase
Briefly: steady-state inhibition kinetics. It is filed as biochemical. Conditions: read-out: PenA1; covalent acyl-enzyme; slow substrate; partition ratio method at 15 min; 10 mM PBS pH 7.4, ~25 °C (stated for hydrolysis curves). The source says: steady-state inhibition kinetics on PenA1

In a further assay the target is T2, AmpC1 (Burkholderia multivorans, UniProt A0A0H3KQ39).
T2 construct: gene ampC; purified class C beta-lactamase
As to the kind of experiment: steady-state inhibition kinetics. The format is biochemical. Particulars: covalent acyl-enzyme; not hydrolysed; 10 mM PBS pH 7.4, ~25 °C (stated for hydrolysis curves). The text has this: steady-state inhibition kinetics on AmpC1

T2 sequence (A0A0H3KQ39 entry or part of it): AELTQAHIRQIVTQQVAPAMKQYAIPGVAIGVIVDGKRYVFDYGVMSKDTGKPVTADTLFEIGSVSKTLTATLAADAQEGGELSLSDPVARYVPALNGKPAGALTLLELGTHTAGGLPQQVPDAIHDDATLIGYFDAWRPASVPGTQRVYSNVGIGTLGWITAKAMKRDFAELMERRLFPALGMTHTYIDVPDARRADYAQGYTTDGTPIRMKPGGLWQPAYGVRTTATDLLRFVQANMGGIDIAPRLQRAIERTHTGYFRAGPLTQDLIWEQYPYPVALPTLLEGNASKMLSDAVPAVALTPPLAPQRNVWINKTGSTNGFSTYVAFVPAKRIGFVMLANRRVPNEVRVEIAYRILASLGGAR
T1 sequence (A0A0H3KN52 entry or part of it): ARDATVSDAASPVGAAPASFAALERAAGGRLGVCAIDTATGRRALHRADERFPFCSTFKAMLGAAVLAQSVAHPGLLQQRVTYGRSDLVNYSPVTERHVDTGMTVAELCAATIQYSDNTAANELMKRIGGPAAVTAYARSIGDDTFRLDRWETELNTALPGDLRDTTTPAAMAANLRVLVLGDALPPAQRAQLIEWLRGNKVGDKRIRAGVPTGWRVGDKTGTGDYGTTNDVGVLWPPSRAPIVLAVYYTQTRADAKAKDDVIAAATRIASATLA

`C[C@@H](O)[C@H]1C(=O)N2C(C(=O)O)=C(SC3CN(C4=NCCS4)C3)[C@H](C)[C@H]12` [tebipenem]: the Ki on PenA1 worked out at 4.7 ± 0.5 µM; at AmpC1 it was 22 ± 2 µM.
